Source: patent US20220226382A1, “Nutritional Composition” (MORINAGA MILK INDUSTRY CO., LTD., priority 2019, published 2022)

Tested on: simian rotavirus SA11 strain
Assay: Plaque assay: antiviral action against simian rotavirus in MA104 cells (infection-suppressing ratio)
Type: cell-based
Details: human milk oligosaccharide alone, n=3
Description: The simian rotavirus SA11 strain (Nihon Bioresearch Inc.) was inoculated to the MA104 cells (Sigma-Aldrich) of African green monkey kidney maintained in a minimum essential medium (Sigma-Aldrich, henceforth referred to simply as “medium”). The simian rotavirus SA11 strain, for example, can be obtained from American Type Culture Collection (ATCC) as ATCC VR-1565. To the medium, lactoferrin (LF) and/or the human milk oligosaccharide(s) shown below were added beforehand alone or in combination at the following concentrations, respectively (n=3).
LF (produced by Morinaga Milk Industry Co., Ltd.): 0, 0.1 or 1.0 mg/mL
2′-Fucosyllactose (2′-FL, Funakoshi Co., Ltd.): 0, 0.1, 0.5, or 2.5 mg/mL
3-Fucosyllactose (3-FL, Funakoshi Co., Ltd.): 0, 0.1, or 0.5 mg/mL
3′-Sialyllactose (3′-SL, Funakoshi Co., Ltd.): 0, 0.1, or 0.5 mg/mL
6′-Sialyllactose (6′-SL, Funakoshi Co., Ltd.): 0, 0.1, or 0.5 mg/mL
Human milk oligosaccharides (mixture) (HMO mix, mixture of 2′-FL (2.5 mg/mL), 3-FL (0.5 mg/mL), 3′-SL (0.25 mg/mL) and 6′-SL (0.5 mg/mL))
The amount of 1.0 mg/mL corresponds to 0.1 mass % in mass percentage.
Degree of infection was evaluated based on the number of “plaques” formed when the cells were infected with the virus. Specifically, the antiviral effects of lactoferrin and human milk oligosaccharides were evaluated based on “plaque-suppressing ratio (%)”, i.e., the ratio of “plaque counts observed with lactoferrin and/or human milk oligosaccharide(s) supplementation” to “plaque counts observed without these supplementation”. Plaque-suppressing ratio was then regarded as “infection-suppressing ratio (%)”.

| Compound | infection-suppressing ratio (0.1 mg/mL) [%] | infection-suppressing ratio (0.5 mg/mL) [%] |
| --- | --- | --- |
| CC(=O)N[C@H]1[C@H]([C@H](O)[C@H](O)CO)O[C@@](OC[C@H]2O[C@@H](O[C@H]3[C@H](O)[C@@H](O)[C@H](O)O[C@@H]3CO)[C@H](O)[C@@H](O)[C@H]2O)(C(=O)O)C[C@@H]1O [6′-SL, 6′-Sialyllactose] | 4.5 | 23 |
| CC(=O)N[C@H]1[C@H]([C@H](O)[C@H](O)CO)O[C@@](O[C@H]2[C@@H](O)[C@@H](CO)O[C@@H](O[C@H]3[C@H](O)[C@@H](O)C(O)O[C@@H]3CO)[C@@H]2O)(C(=O)O)C[C@@H]1O (stereo partly drawn) [3′-SL, 3′-Sialyllactose] | – | 33 |
| 3-Fucosyllactose [3-FL] | 6.6 | 21 |
| 2′-Fucosyllactose [2′-FL] | 1.2 | – |
